Results reported in publication PMC9769694, “Discovery of Two Inhibitors of the Type IV Pilus Assembly ATPase PilB as Potential Antivirulence Compounds” (Microbiology Spectrum, 2022).

Tests used:
[1] = tested on: A. nosocomialis twitching motility; assay: Twitching motility, crystal violet stained twitching area; type: cell-based, Acinetobacter nosocomialis; conditions: WT M2 strain; for effect on twitching of the WT strain at 128 μM: compared with ΔpilA; for concentration significantly reducing twitching: P < 0.05
Text: The inhibitors may thus interact with conserved features of the PilB ATPase family. A. nosocomialis PilB ([19]), whose N terminus is not similar to the MshEN domain (data not shown), shares ~53% identity and ~74% homology with MxPilB and MC3PilB in the ATPase domain (Fig. S1). We analyzed whether benserazide and levodopa could impact the T4P-powered twitching motility ([19], [44]) of A. nosocomialis (Fig. 7), an opportunistic pathogen in the Acinetobacter calcoaceticus-Acinetobacter baumannii (ACB) complex ([45]). As shown in Fig. 7A and B and Fig. S7, benserazide and levodopa impede the twitching motility of WT A. nosocomialis in a concentration-dependent manner.
FIG 7 Benserazide and levodopa inhibit Acinetobacter nosocomialis twitching motility and biofilm formation. (A and B) Twitching motility is correlated with the twitching area (cm^2) of the A. nosocomialis wild-type (WT) strain in the presence of (A) benserazide or (B) levodopa, with the control (no inhibitor) normalized to 1. Data are from 3 independent experiments, each performed in triplicates and represented by dots of the same color. (C and D) Biofilms formed by A. nosocomialis with (C) benserazide or (D) levodopa were analyzed by a microplate assay with crystal violet (CV) staining. Results from three independent experiments, each performed in quadruplicates and represented by dots of the same color, are shown. Horizontal lines indicate overall averages, and asterisks (*) signify that values at the indicated concentration are statistically different from those of the control (P < 0.05).
The A. nosocomialis wild-type M2 strain and an isogenic pilA deletion (ΔpilA) mutant ([19], [46]) were used in this study. They were grown and maintained using MacConkey medium at 37°C. The twitching motility of the M2 strain of A. nosocomialis was analyzed with 1% crystal violet (CV) for staining, and twitching areas were used as measures of motility as previously described ([46]). These motility assays were conducted in triplicates and the stained area of the ΔpilA mutant was subtracted from that of the WT for data analysis. A. nosocomialis biofilm formation was analyzed using microplates and CV staining as previously described ([53], [54]). The biofilm assays were conducted in quadruplicate in MacConkey medium with tissue culture-treated microtiter plates (Falcon). CV absorbance (Acv) was measured at 590 nm using Infinite M200 PRO in clear polystyrene 96-well microplates (ExtraGene). Absorbance for each well was read 16 times using Multiple Reads with the average as the final Acv value. Readings from control wells without bacteria were subtracted for normalization. Statistical differences were determined using a Student’s t test.

M. xanthus motility = assay: Colony expansion of S-motile strains on hard agar; type: cell-based, Myxococcus xanthus; conditions: strains YZ1674 and YZ2232, P < 0.05
Text: On the other hand, YZ1674 and YZ2232, which have both A and S motility, were affected in their expansion on hard agar by both compounds (Fig. S4 and S5) at concentrations similar to those on soft agar. Indeed, the results with hard agar plates mirror those with soft agar. […] Because neither benserazide nor levodopa had any effect on A motility (Fig. S3C and D), the net differences on hard agar at different concentrations of the inhibitor (Fig. S4) can be viewed as confirmation of its effect on S motility (Fig. 5). […] It is plausible that this inhibition is attributable to their effects on the PilB ATPase in vivo.
(§1) M. xanthus was grown and maintained at 32°C in Casitone-yeast extract (CYE) medium ([49]). Motility assays were conducted with strains DK10416 (ΔpilB) ([40]), YZ1674 (ΔpilB att::MxpilB) ([50]), and YZ2232 (ΔpilB att::MC3pilB) ([30], [51]) as previously described ([28]). One modification was that 10% India ink was included in the cell suspension to mark the initial spot on agar plates. All experiments were conducted in quintuplicates and the diameter of the initial spot, as marked by India ink, was subtracted for data analysis.

M. xanthus T4P assembly = assay: T4P assembly, dot blot of T4P fractions with anti-pilin antibodies; type: cell-based, Myxococcus xanthus; conditions: strain YZ603 (ΔdifE), 16-128 μM tested, P < 0.05
Procedure: Alternatively, they may inhibit other processes such as pilin production or T4P retraction. […] Briefly, pre-existing pili were sheared off and separated from cells by vortexing and centrifugation. These shaved or unpiliated cells were allowed to assemble new T4P in the presence or absence of a PilB inhibitor. T4P fractions were prepared and analyzed by dot blotting with anti-pilin antibodies as a measure of T4P levels ([28]). […] As such, the T4P fraction represents the level of T4P assembly without complication from T4P retraction ([28]).
Piliation levels of the M. xanthus strain YZ603 (ΔdifE) ([52]) were analyzed by dot-blotting with anti-PilA antibodies as previously described ([28]). This study included a fraction representing the “Basal” T4P levels for a given treatment. This is the T4P fraction from sheared cells mixed with an inhibitor and pre-equilibrated on ice for 10 min before the cells were incubated at 32°C for 20 min to allow T4P regrowth or assembly. These fractions were used as controls and subtracted as the baseline in data analysis.

M. xanthus S motility = assay: T4P-mediated social (S) motility, colony expansion on soft agar; type: cell-based, Myxococcus xanthus; conditions: soft agar, strains YZ1674 (MxPilB) and YZ2232 (MC3PilB), 5 days, P < 0.05
Text: Benserazide and levodopa were examined to determine whether they could impact the T4P assembly function of PilB in vivo using M. xanthus as the model bacterium ([28]). […] Three M. xanthus strains were used for these experiments. Strain DK10416 lacks S motility because it is a pilB deletion (ΔpilB) mutant ([40]). The other two strains both assemble T4P and are proficient in S motility ([30]). Strain YZ1674 produces the wild-type (WT) M. xanthus PilB (MxPilB). YZ2232 expresses MC3PilB, a PilB chimera with the N terminus of MxPilB fused to the C-terminal ATPase domain of CtPilB ([30]). The PilB ATPase domains of MxPilB and MC3PilB are highly similar, with 66% shared identity and 77% similarity (Fig. S1).
FIG 5 Benserazide and levodopa inhibit T4P-mediated social (S) motility in Myxococcus xanthus. Expansion rates (cm/day) of the MxPilB (YZ1674) and the MC3PilB (YZ2232) strains on soft agar plates by S motility in the presence of (A and C) benserazide and (B and D) levodopa after 5 days of incubation. Results from three independent experiments are shown, each performed in quintuplicates with data points represented by dots of the same color. Horizontal black lines represent overall averages. Expansion rates were normalized by subtracting that of the ΔpilB strain, which has no S motility (also see Fig. S4). Asterisks (*) indicate that the values at the indicated concentrations are statistically different (P < 0.05) from those of the no-inhibitor control.
as §1

Compound: NC(CO)C(=O)NNCc1ccc(O)c(O)c1O (stereo not shown) [benserazide]
- effect on twitching of the WT strain at 128 μM [1]: eliminated twitching
- concentration significantly reducing twitching [1]: ≥ 32 µM
- concentration giving statistically significant reduction of expansion on hard agar (M. xanthus motility): ≥ 8 µM
- concentration giving statistically significant decrease in T4P assembly (M. xanthus T4P assembly): ≥ 16 µM
- concentration giving significant inhibition of S motility (M. xanthus S motility): ≥ 8 µM

Compound: N[C@@H](Cc1ccc(O)c(O)c1)C(=O)O [levodopa, 3,4-dihydroxyphenylalanine]
- effect on twitching of the WT strain at 128 μM [1]: eliminated twitching
- concentration significantly reducing twitching [1]: ≥ 32 µM
- concentration giving statistically significant reduction of expansion on hard agar (M. xanthus motility): ≥ 32 µM
- concentration giving statistically significant decrease in T4P assembly (M. xanthus T4P assembly): ≥ 32 µM
- concentration giving significant inhibition of S motility (M. xanthus S motility): ≥ 32 µM
